Test results from patent US20040102325A1, “Phenylpropynyloxypyridine herbicides” (priority 2000, published 2004).

What was measured:
Assay type in all cases: in vivo
Amaranthus [1] = assay: Pre-emergence herbicidal action, Amaranthus; parameters: key: 1=total damage; 9=no action; details: 1000 g a.i./ha, 4 weeks, scale of nine ratings (1=total damage, 9=no action)
Excerpt: (§1) Monocotyledonous and dicotyledonous test plants are sown in standard soil in pots. Immediately after sowing, an aqueous suspension of the test compounds (prepared from a wettable powder (Example F3, b) according to WO 97/34485) or an emulsion of the test compounds (prepared from an emulsifiable concentrate (Example F1, c) according to WO 97/34485) is applied by spraying at an optimum rate of application (500 litres of water/ha). The test plants are then cultivated in a greenhouse under optimum conditions. After a test duration of 4 weeks, the test is evaluated in accordance with a scale of nine ratings (1=total damage, 9=no action). Ratings of from 1 to 4 (especially from 1 to 3) indicate good to very good herbicidal action. Test plants: Setaria, Panicum, Digitaria, Amaranthus, Stellaria, Veronica.

Panicum [2] = assay: Pre-emergence herbicidal action, Panicum; details: 1000 g a.i./ha, 4 weeks, scale of nine ratings (1=total damage, 9=no action)
Excerpt: as §1

Chenopodium = assay: Post-emergence herbicidal action, Chenopodium; parameters: key: 1=total damage; 9=no action; details: post-emergence (2- to 3-leaf stage), 1000 g a.i/ha, 2 to 3 weeks, scale of nine ratings (1=total damage, 9=no action)
Description: (§2) Monocotyledonous and dicotyledonous test plants are sown in standard soil in pots, and at the 2- to 3-leaf stage are sprayed with an aqueous suspension of the test compounds (prepared from a wettable powder (Example F3, b) according to WO 97/34485) or with an emulsion of the test compounds (prepared from an emulsifiable concentrate (Example F1, c) according to WO 97/34485) at an optimum rate of application of 500 litres of water/ha). The test plants are then grown on in the greenhouse under optimum conditions. After a test duration of 2 to 3 weeks, the test is evaluated in accordance with a scale of nine ratings (1=total damage, 9=no action). Ratings of from 1 to 4 (especially from 1 to 3) indicate good to very good herbicidal action. Test plants: Panicum, Euphorbia, Sida, Amaranthus, Chenopodium, Stellaria, Veronica.

Setaria = assay: Pre-emergence herbicidal action, Setaria; details: 1000 g a.i./ha, 4 weeks, scale of nine ratings (1=total damage, 9=no action)
Excerpt: as §1

Digitaria = assay: Pre-emergence herbicidal action, Digitaria; details: 1000 g a.i./ha, 4 weeks, scale of nine ratings (1=total damage, 9=no action)
Excerpt: as §1

Amaranthus [3] = assay: Post-emergence herbicidal action, Amaranthus; details: post-emergence (2- to 3-leaf stage), 1000 g a.i/ha, 2 to 3 weeks, scale of nine ratings (1=total damage, 9=no action)
Description: as §2

Veronica [4] = assay: Pre-emergence herbicidal action, Veronica; details: 1000 g a.i./ha, 4 weeks, scale of nine ratings (1=total damage, 9=no action)
Excerpt: as §1

Sida = assay: Post-emergence herbicidal action, Sida; details: post-emergence (2- to 3-leaf stage), 1000 g a.i/ha, 2 to 3 weeks, scale of nine ratings (1=total damage, 9=no action)
Description: as §2

Veronica [5] = assay: Post-emergence herbicidal action, Veronica; details: post-emergence (2- to 3-leaf stage), 1000 g a.i/ha, 2 to 3 weeks, scale of nine ratings (1=total damage, 9=no action)
Description: as §2

Stellaria [6] = assay: Pre-emergence herbicidal action, Stellaria; parameters: key: 1=total damage; 9=no action; details: 1000 g a.i./ha, 4 weeks, scale of nine ratings (1=total damage, 9=no action)
Excerpt: as §1

Panicum [7] = assay: Post-emergence herbicidal action, Panicum; details: post-emergence (2- to 3-leaf stage), 1000 g a.i/ha, 2 to 3 weeks, scale of nine ratings (1=total damage, 9=no action)
Description: as §2

Stellaria [8] = assay: Post-emergence herbicidal action, Stellaria; parameters: key: 1=total damage; 9=no action; details: post-emergence (2- to 3-leaf stage), 1000 g a.i/ha, 2 to 3 weeks, scale of nine ratings (1=total damage, 9=no action)
Description: as §2

Euphorbia = assay: Post-emergence herbicidal action, Euphorbia; parameters: key: 1=total damage; 9=no action; details: post-emergence (2- to 3-leaf stage), 1000 g a.i/ha, 2 to 3 weeks, scale of nine ratings (1=total damage, 9=no action)
Description: as §2

COc1cc(Br)cnc1OCC#Cc1cccc(CC#N)c1 [1.017]
2: Panicum, herbicidal action rating (Panicum [2]) | Digitaria, herbicidal action rating (Digitaria) | Amaranthus, herbicidal action rating (Amaranthus [3]) | Veronica, herbicidal action rating (Veronica [4]) | Sida, herbicidal action rating (Sida) | Veronica, herbicidal action rating (Veronica [5])
5: Setaria, herbicidal action rating (Setaria)
4: Panicum, herbicidal action rating (Panicum [7])
1: Amaranthus, herbicidal action rating (Amaranthus [1]) | Chenopodium, herbicidal action rating (Chenopodium) | Stellaria, herbicidal action rating (Stellaria [6]) | Stellaria, herbicidal action rating (Stellaria [8]) | Euphorbia, herbicidal action rating (Euphorbia)
